Laboratory results from ChEMBL document CHEMBL4425105, “Discovery of (S)-1-(1-(4-Chloro-3-fluorophenyl)-2-hydroxyethyl)-4-(2-((1-methyl-1H-pyrazol-5-yl)amino)pyrimidin-4-yl)pyridin-2(1H)-one (GDC-0994), an Extracellular Signal-Regulated Kinase 1/2 (ERK1/2) Inhibitor in Early Clinical Development” (J Med Chem, 2016).

Tests used:
[1] = biological target: Mitogen-activated protein kinase 1 (Homo sapiens, UniProt P28482)
Description: Inhibition of ERK2 (unknown origin)

[2] = biological target: Mitogen-activated protein kinase 3 (Homo sapiens, UniProt P27361)
Description: Inhibition of ERK1 (unknown origin)

[3] = test system: Cytochrome P450; assay: Inhibition of CYP450 (unknown origin); type: ADME, protein assay; conditions: human
[4] = in vivo; conditions: CD-1, mouse, po
Description: Oral bioavailability in CD-1 mouse

[5] = Drug metabolism in rat hepatocytes assessed as formation of 3-(4-(1-((S)-1-(4-chloro-3-fluorophenyl)-2-hydroxyethyl)-2-oxo-1,2-dihydropyridin-4-yl)pyrimidin-2-ylamino)-5-hydroxypentanoic acid measured after 3 hrs by LC-MS/MS analysis; type: ADME, cell-based, Hepatocyte
[6] = Drug metabolism in human hepatocytes assessed as formation of 3-(4-(1-((S)-1-(4-chloro-3-fluorophenyl)-2-hydroxyethyl)-2-oxo-1,2-dihydropyridin-4-yl)pyrimidin-2-ylamino)-5-hydroxypentanoic acid measured after 3 hrs by LC-MS/MS analysis; type: ADME, cell-based, Hepatocyte
[7] = Drug metabolism in mouse hepatocytes assessed as formation of 3-(4-(1-((S)-1-(4-chloro-3-fluorophenyl)-2-hydroxyethyl)-2-oxo-1,2-dihydropyridin-4-yl)pyrimidin-2-ylamino)-5-hydroxypentanoic acid measured after 3 hrs by LC-MS/MS analysis; type: ADME, cell-based, Hepatocyte
[8] = organism: Mus musculus
Description: In vivo inhibition of p90RSK phosphorylation in mouse xenografted with human HTC116 cells assessed as total plasma concentration required for efficacy

[9] = Drug metabolism in cynomolgus monkey hepatocytes assessed as formation of 3-(4-(1-((S)-1-(4-chloro-3-fluorophenyl)-2-hydroxyethyl)-2-oxo-1,2-dihydropyridin-4-yl)pyrimidin-2-ylamino)-5-hydroxypentanoic acid measured after 3 hrs by LC/MS analysis; type: ADME, cell-based, Macaca fascicularis, Hepatocyte
[10] = Fraction unbound in mouse plasma; type: ADME, cell-free
[11] = Permeability from apical to basolateral side of MDCK cells; type: ADME, cell-based, Canis lupus familiaris; conditions: dog, read-out: permeability
[12] = test system: Mus musculus; assay: T>IC50 for inhibition of p90RSK phosphorylation in CD-1 mouse at 10 mg/kg, po
[13] = Drug metabolism in dog hepatocytes assessed as formation of 3-(4-(1-((S)-1-(4-chloro-3-fluorophenyl)-2-hydroxyethyl)-2-oxo-1,2-dihydropyridin-4-yl)pyrimidin-2-ylamino)-5-hydroxypentanoic acid measured after 3 hrs by LC-MS/MS analysis; type: ADME, cell-based, Canis lupus familiaris, Hepatocyte
[14] = test system: HCT-116; assay: Antitumor activity against human HCT116 cells xenografted in mouse assessed as tumor growth inhibition at 7.5 mg/kg, po qd measured after 21 days relative to vehicle-control; type: functional; conditions: HCT-116, po, 504 h
[15] = Drug level in cynomolgus monkey hepatocytes treated with (S)-1-(1-(4-chloro-3-fluorophenyl)-2-hydroxyethyl)-4-(2-(tetrahydro-2H-pyran-4-ylamino)pyrimidin-4-yl)pyridin-2(1H)-one measured after 3 hrs by LC/MS analysis; type: ADME, cell-based, Macaca fascicularis, Hepatocyte
[16] = Drug level in human hepatocytes treated with (S)-1-(1-(4-chloro-3-fluorophenyl)-2-hydroxyethyl)-4-(2-(tetrahydro-2H-pyran-4-ylamino)pyrimidin-4-yl)pyridin-2(1H)-one measured after 3 hrs by LC/MS analysis; type: ADME, cell-based, Hepatocyte
[17] = Drug level in rat hepatocytes treated with (S)-1-(1-(4-chloro-3-fluorophenyl)-2-hydroxyethyl)-4-(2-(tetrahydro-2H-pyran-4-ylamino)pyrimidin-4-yl)pyridin-2(1H)-one measured after 3 hrs by LC/MS analysis; type: ADME, cell-based, Hepatocyte
[18] = Drug level in dog hepatocytes treated with (S)-1-(1-(4-chloro-3-fluorophenyl)-2-hydroxyethyl)-4-(2-(tetrahydro-2H-pyran-4-ylamino)pyrimidin-4-yl)pyridin-2(1H)-one measured after 3 hrs by LC/MS analysis; type: ADME, cell-based, Canis lupus familiaris, Hepatocyte
[19] = Drug level in mouse hepatocytes treated with (S)-1-(1-(4-chloro-3-fluorophenyl)-2-hydroxyethyl)-4-(2-(tetrahydro-2H-pyran-4-ylamino)pyrimidin-4-yl)pyridin-2(1H)-one measured after 3 hrs by LC/MS analysis; type: ADME, cell-based, Hepatocyte
[20] = biological target: Cytochrome P450 3A4 (Homo sapiens, UniProt P08684)
Cytochrome P450 3A4, sequence (P08684 whole entry): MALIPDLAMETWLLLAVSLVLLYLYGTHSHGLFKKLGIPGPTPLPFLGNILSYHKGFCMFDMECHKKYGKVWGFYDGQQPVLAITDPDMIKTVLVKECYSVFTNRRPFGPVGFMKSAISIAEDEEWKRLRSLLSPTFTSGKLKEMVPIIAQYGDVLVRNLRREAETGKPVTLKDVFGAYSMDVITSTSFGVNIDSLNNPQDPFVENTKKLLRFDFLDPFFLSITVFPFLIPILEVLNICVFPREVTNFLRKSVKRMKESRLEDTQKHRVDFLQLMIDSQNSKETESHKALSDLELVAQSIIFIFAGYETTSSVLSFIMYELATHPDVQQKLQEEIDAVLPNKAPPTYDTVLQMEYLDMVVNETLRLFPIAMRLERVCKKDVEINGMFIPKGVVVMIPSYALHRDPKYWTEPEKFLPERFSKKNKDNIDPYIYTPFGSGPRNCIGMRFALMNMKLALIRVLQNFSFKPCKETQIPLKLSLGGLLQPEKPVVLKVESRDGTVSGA
Description: Inhibition of CYP3A4 (unknown origin)

Mitogen-activated protein kinase 1, sequence (P28482 whole entry): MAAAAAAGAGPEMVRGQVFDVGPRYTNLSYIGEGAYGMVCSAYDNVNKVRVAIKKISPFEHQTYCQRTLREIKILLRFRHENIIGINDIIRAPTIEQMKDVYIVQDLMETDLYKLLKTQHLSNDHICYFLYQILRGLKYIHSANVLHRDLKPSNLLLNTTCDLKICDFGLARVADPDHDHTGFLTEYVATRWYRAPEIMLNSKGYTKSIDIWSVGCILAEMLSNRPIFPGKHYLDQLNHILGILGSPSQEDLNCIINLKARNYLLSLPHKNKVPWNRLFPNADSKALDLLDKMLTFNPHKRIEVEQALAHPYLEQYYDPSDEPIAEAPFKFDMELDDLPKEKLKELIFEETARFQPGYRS
Mitogen-activated protein kinase 3, sequence (P27361 whole entry): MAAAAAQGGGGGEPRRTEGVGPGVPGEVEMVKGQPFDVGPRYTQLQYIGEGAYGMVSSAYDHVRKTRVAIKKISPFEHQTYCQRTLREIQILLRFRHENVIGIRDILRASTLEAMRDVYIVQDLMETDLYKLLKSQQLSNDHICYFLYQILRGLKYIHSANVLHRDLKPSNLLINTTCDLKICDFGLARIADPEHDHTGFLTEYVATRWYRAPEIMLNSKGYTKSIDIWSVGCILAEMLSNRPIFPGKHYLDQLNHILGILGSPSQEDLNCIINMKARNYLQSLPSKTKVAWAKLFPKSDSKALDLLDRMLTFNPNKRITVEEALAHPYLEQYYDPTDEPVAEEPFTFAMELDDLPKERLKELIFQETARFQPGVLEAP

Compound	IC50 [1]	IC50 [2]	inhibition (INH) [3]	also measured
CCc1cc(Nc2nccc(-c3ccn([C@H](CO)c4ccc(Cl)c(F)c4)c(=O)c3)n2)n(C)n1	17 nM	27 nM		
CCc1nn(C)cc1Nc1nccc(-c2ccn([C@H](CO)c3ccc(Cl)c(F)c3)c(=O)c2)n1	23 nM	43 nM	Not Active	
Cc1nn(C)cc1Nc1nccc(-c2ccn([C@H](CO)c3ccc(Cl)c(F)c3)c(=O)c2)n1		13 nM	Not Active	bioavailability [4]: 95%
Cn1cc(Nc2nccc(-c3ccn([C@H](CO)c4ccc(Cl)c(F)c4)c(=O)c3)n2)cn1	4.1 nM	7.9 nM	Not Active	
O=c1cc(-c2ccnc(NC3CCOCC3)n2)ccn1[C@H](CO)c1ccc(Cl)c(F)c1				Drug metabolism [5]: Metabolite_Detected; Drug metabolism [6]: Metabolite_Detected; Drug metabolism [7]: Metabolite_Detected; Cp [8]: 200 nM; Drug metabolism [9]: Metabolite_Detected; fraction unbound [10]: 0.058; Papp A→B [11]: 3.9 ×10⁻⁶ cm/s; Time [12]: 8 h; Drug metabolism [13]: Metabolite_Detected
O=C(c1ccc(F)c(F)c1Nc1ccc(I)cc1F)N1CC(O)([C@@H]2CCCCN2)C1 [COBIMETINIB]				inhibition in vivo at 7.5 mg/kg [14]: 58%
CCn1nc(C)cc1Nc1nccc(-c2ccn([C@H](CO)c3ccc(Cl)c(F)c3)c(=O)c2)n1	89 nM	150 nM		
CCn1nccc1Nc1nccc(-c2ccn([C@H](CO)c3ccc(Cl)c(F)c3)c(=O)c2)n1	16 nM	26 nM		
Cn1ccc(Nc2nccc(-c3ccn([C@H](CO)c4ccc(Cl)c(F)c4)c(=O)c3)n2)n1	37 nM	85 nM		
Cn1nc(C(F)(F)F)cc1Nc1nccc(-c2ccn([C@H](CO)c3ccc(Cl)c(F)c3)c(=O)c2)n1	52 nM	74 nM		
Cc1cnn(C)c1Nc1nccc(-c2ccn([C@H](CO)c3ccc(Cl)c(F)c3)c(=O)c2)n1	490 nM	1070 nM		
Cc1n[nH]c(C)c1Nc1nccc(-c2ccn([C@H](CO)c3ccc(Cl)c(F)c3)c(=O)c2)n1	240 nM	510 nM	Not Active	
O=C(O)CC(CCO)Nc1nccc(-c2ccn([C@H](CO)c3ccc(Cl)c(F)c3)c(=O)c2)n1 (some centres not stated)				Drug metabolism [15]: Metabolite_Detected; Drug metabolism [16]: Metabolite_Detected; Drug metabolism [17]: Metabolite_Detected; Drug metabolism [18]: Metabolite_Detected; Drug metabolism [19]: Metabolite_Detected
Cc1cc(Nc2nccc(-c3ccn([C@H](CO)c4ccc(Cl)c(F)c4)c(=O)c3)n2)ccn1	0.94 nM	3.9 nM		IC50 [20]: 340 nM
Cc1c(Nc2nccc(-c3ccn([C@H](CO)c4ccc(Cl)c(F)c4)c(=O)c3)n2)cnn1C	29 nM	62 nM	Not Active	
CCn1cc(Nc2nccc(-c3ccn([C@H](CO)c4ccc(Cl)c(F)c4)c(=O)c3)n2)c(C)n1		18 nM	Not Active	
O=c1cc(-c2ccnc(Nc3cc[nH]n3)n2)ccn1[C@H](CO)c1ccc(Cl)c(F)c1	5650 nM	9610 nM		
Cc1n[nH]cc1Nc1nccc(-c2ccn([C@H](CO)c3ccc(Cl)c(F)c3)c(=O)c2)n1	0.9 nM	3.8 nM	Not Active	
CC(C)n1cc(Nc2nccc(-c3ccn([C@H](CO)c4ccc(Cl)c(F)c4)c(=O)c3)n2)cn1	10 nM	19 nM	Not Active	
Cc1cc(Nc2nccc(-c3ccn([C@H](CO)c4ccc(Cl)c(F)c4)c(=O)c3)n2)n(C)n1		20 nM		
Cn1cc(Nc2nccc(-c3ccn([C@H](CO)c4ccc(Cl)c(F)c4)c(=O)c3)n2)c(C(F)(F)F)n1	290 nM	550 nM	Not Active	
CCn1cc(Nc2nccc(-c3ccn([C@H](CO)c4ccc(Cl)c(F)c4)c(=O)c3)n2)cn1	1.8 nM	5 nM	Not Active	
